Experimental data from patent US20110118277A1, “METHOD OF TREATING LIVER DISEASE” (priority 2003, published 2011).

What was measured:
oval cells = assay: Immunohistochemical count of hepatic oval cells (HPC) in HMCDE-fed mice; type: in vivo, mouse; settings: FIGS. 4A-4C, immunohistochemistry (and flow cytometry), P<0.001
Method: Immunohistochemical analysis of HPC was performed with a mouse monoclonal OV6-type antibody (from Dr Stuart Sell, Albany Medical College, Albany, N.Y.) reacting with cytokeratins 14 and 19; a rabbit polyclonal antibody against 56 and 64 kD human callus cytokeratins (Dako, Denmark) and a rat monoclonal antibody to cytokeratin 19 as described Am J Pathol 2002; 161:521-530.
Details of the staining procedures are as described Am J Pathol 2002; 161:521-530. Briefly, 4 um thick paraffin sections were deparaffinized and rehydrated, followed by heating in a microwave oven for 10 minutes at 750 Watt in citrate buffer, pH 6.0. Incubation with the primary antibodies was performed at room temperature for 30 minutes. Mouse monoclonal OV6 antibody and rat anti-cytokeratin 19 were detected using the DAKO Animal Research Kit, peroxidase (Dako, Denmark). The rabbit polyclonal antibody against 56 and 64 kD human callus cytokeratins was detected by anti-rabbit Envision (Dako, Denmark) as described in J Pathol 2003; 199:191-200. […]
To evaluate the effect of treatments on the HPC compartment, coded samples were examined by an experienced liver pathologist blinded to treatment groups. For each liver section, the number of HPC in 5, randomly selected, non-overlapping, high power (×40 objective) fields was counted. […] Interlobular bile ducts were not considered progenitor cells and, thus, were not counted as such.

LIN^−ve/Thy-1^+ve cells = assay: Flow cytometry of putative bone marrow-derived hepatic progenitors in liver of HMCDE-fed mice; type: in vivo, mouse; settings: FIG. 4C, P<0.03 (PRZ), <0.05 (6-OHDA)
Description: The hepatic non-parenchymal cell fraction, which contains the oval cell population and the NK-T cell populations, were isolated as described in Hepatology 1998; 27:433-455 and Gastroenterology 2002; 123:[…]. Briefly, livers were carefully removed and homogenized in Stomacher80 (Seawood, England). The homogenate was then passed through a 100-μm wire mesh and liver cells were collected by centrifugation at 450 g. Mononuclear cells were purified from this fraction by centrifugation at 900 g over 35% Percoll gradients (Amersham Pharmacia Biotech) and incubated with normal mouse serum (Sigma, St Louis, Mo.) and Fc-receptor block (anti-CD16/CD32) to prevent nonspecific binding, plus APC-conjugated anti-mouse Thy-1.2 (the C57BL-6 form of the Thy-1 antibody) and antibodies directed against hematopoietic lineage markers (LIN, a mix of anti-mouse CD4, CD8, CD3, CD45, CD19, Mac-1, Gr-1, Ter119). For NK-T cell labelling, the mononuclear cells were incubated with […] anti-mouse NK-1.1 and PE-conjugated anti-mouse CD3. […] After incubation, pellets were washed to remove unbound antibodies, fixed with 2% formaldehyde and evaluated by FACS (Becton Dickenson). […] Data was analyzed by Cell Quest software (Becton Dickenson) to determine changes in these cell populations in different treatment groups.

HGF = assay: Ribonuclease protection assay of whole liver RNA: HGF; type: in vivo, mouse; settings: for effect on HMCDE-induced increase of hepatic HGF expression: versus HMCDE alone; for Gene Expression HGF: whole liver RNA, RPA, normalized to GAPDH, mean±SEM of 4 mice, HMCDE diet
Method: (§1) Total […] was isolated from frozen liver samples according to the method of Chomczynski and Sacchi as described in Gastroenterology 2002; 123: 1304-1310. KNA concentration was determined by optical density and quality was assessed by agarose gel electrophoresis and ethidium bromide staining. Commercial ribonuclease protection assay (RPA) kits with probes for murine cytokines (PharMingen, San Diego, Calif.) were used to evaluate factors that might be involved in the recruitment and expansion of HPC after liver injury. The factors studied were Stem Cell Factor (SCF), Hepatocyte Growth Factor (HGF), Interleukin-7 (IL-7), IL-11, Leukaemia Inhibitory Factor (LEF), Granulocyte-Macrophage Colony Stimulating Factor (GM-CSF), Granulocyte Colony, Stimulating Factor (G-CSF), Vascular Endothelial Growth Factor (VEGF), and its receptors, VEGFR1 and VEGFR3. Details of the RPA are described in J Pathol 2003; 199:191-200.
Total RNA was isolated from frozen liver samples as described in Mech Dev 120: 117-130, 2003. RNA concentration was determined by optical density and quality assessed by agarose gel electrophoresis and ethidium bromide staining. Ribonuclease protection assay (RPA) kits with probes for murine cytokines (PharMingen, San Diego, Calif.) were used to evaluate factors that might be involved in the recruitment and expansion of HPC after liver injury. The factors studied were Stem Cell Factor (SCF), Hepatocyte Growth Factor ([…]), Interleukin-6 (IL-6), IL7, IL-11, Leukaemia Inhibitory Factor (LIF), Granulocyte-Macrophage Colony Stimulating Factor (GM-CSF), Macrophage Colony Stimulating Factor (M-CSF), Granulocyte Colony Stimulating Factor (G-CSF), Vascular Endothelial Growth Factor (VEGF), and its receptors, VEGFR1 and YEGFR3.
In Table 1, Total liver RNA was obtained from 4 mice per treatment group and analyzed by RPA 20 μg RNA sample from each mouse was evaluated. Results are normalized to concurrently assessed expression of GAPDH in the same RNA samples. Data shown are the mean±SEM results of 4 mice per treatment group. Similar results were obtained in a second experiment.

G-CSF = assay: Ribonuclease protection assay of whole liver RNA: G-CSF; type: in vivo, mouse; settings: RPA, normalized to GAPDH, mean±SEM of 4 mice, HMCDE diet
Method: as §1
(§2) Total RNA was isolated from frozen liver samples as described in Mech Dev 120: 117-130, 2003. RNA concentration was determined by optical density and quality assessed by agarose gel electrophoresis and ethidium bromide staining. […]
(§3) In Table 1, Total liver RNA was obtained from 4 mice per treatment group and analyzed by RPA 20 μg RNA sample from each mouse was evaluated. Results are normalized to concurrently assessed expression of GAPDH in the same RNA samples. […]

VEGF = assay: Ribonuclease protection assay of whole liver RNA: VEGF; type: in vivo, mouse; settings: RPA, normalized to GAPDH, mean±SEM of 4 mice, HMCDE diet
Method: as §1, §2, §3

VEGFR1 = assay: Ribonuclease protection assay of whole liver RNA: VEGFR1; type: in vivo, mouse; settings: RPA, normalized to GAPDH, mean±SEM of 4 mice, HMCDE diet
Method: as §1, §2, §3

VEGFR3 = assay: Ribonuclease protection assay of whole liver RNA: VEGFR3; type: in vivo, mouse; settings: RPA, normalized to GAPDH, mean±SEM of 4 mice, HMCDE diet
Method: as §1, §2, §3

[1] = tested on: bone marrow-derived hematopoietic progenitors; settings: treatment of mice, shown hitherto; cited from earlier work
[2] = tested on: carbon tetrachloride-treated rats; settings: earlier study; cited from earlier work
hepatocyte DNA synthesis = settings: rats pre-treated immediately before PH; cited from earlier work

Row | Compound | oval cell / HPC number versus HMCDE diet alone (oval cells) | LIN^−ve/Thy-1^+ve cells in liver versus HMCDE diet alone (LIN^−ve/Thy-1^+ve cells) | effect on HMCDE-induced increase of hepatic HGF expression (HGF) | Gene Expression HGF (HGF) | Gene Expression G-CSF (G-CSF) | Gene Expression VEGF (VEGF) | Gene Expression VEGFR1 (VEGFR1) | Gene Expression VEGFR3 (VEGFR3) | mobilization of hematopoietic progenitors [1] | development of cirrhosis [2] | compensatory induction of hepatocyte DNA synthesis after partial hepatectomy (hepatocyte DNA synthesis)
1 | NCCc1cc(O)c(O)cc1O [6-OHDA, 6-hydroxydopamine] | significantly augments diet-induced HPC expansion | more LIN^−ve/Thy-1^+ve cells | did not augment this response | 2.4 ± 0.75 | 1.4 ± 0.3 | 2.3 ± 0.5 | 0.4 ± 0.1 | 2.1 ± 1.0 | mobilize bone marrow-derived hematopoietic progenitors into the circulation |  | 
2 | COc1cc2nc(N3CCN(C(=O)c4ccco4)CC3)nc(N)c2cc1OC [PRZ, prazosin] | significantly augments diet-induced HPC expansion | more LIN^−ve/Thy-1^+ve cells | did not augment this response | 2.1 ± 0.30 | 1.0 ± 0.3 | 1.4 ± 0.4 | 0.2 ± 0.2 | 1.7 ± 0.4 | mobilize bone marrow-derived hematopoietic progenitors into the circulation | prevents the development of cirrhosis | inhibited
